Source: PMC5000080, “Mechanism of Histone H3K4me3 Recognition by the Plant Homeodomain of Inhibitor of Growth 3” (The Journal of Biological Chemistry, 2016)
“And” between values parts separate entries of the source, which are not always exact repeats. Identical values can stand only once. “Also recorded” adds a separate entry of the source.

Legend:
ING3 PHD finger = target: T1, ING3 PHD finger (Homo sapiens, UniProt Q9NXR8); assay: Tryptophan fluorescence titration of ING3 PHD finger with histone peptides; assay type: binding; details: 25 °C, 100 mM NaPO4 pH 7.5, 150 mM NaCl, 1 mM DTT, 10 μM ING3 PHD; average of three titrations; read-out: Trp fluorescence KD
T1 construct: The ING3 PHD finger region (residues 360–409) was amplified using PCR; GST (N, cleaved yes); made in house; host or cells: Escherichia coli Rosetta 2(DE3)pLysS
Procedure: Tryptophan fluorescence spectra of samples in tryptophan fluorescence buffer (100 mM NaPO4, pH 7.5, 150 mM NaCl, and 1 mM DTT) were collected at 25 °C using a Cary Eclipse fluorescence spectrometer (Varian). The samples contained 10 μM ING3 PHD finger protein and progressively increasing concentrations of histone H3 and H4 peptides. The 12- and 14-mer unlabeled histone tail peptides with an amidated C terminus and specific methylation modifications (H3K4me3, H3K4me2, H3K4me1, H3 unmodified, and H4 unmodified) were synthesized by the Peptide Core Facility at the University of Colorado at Denver. After excitation at 295 nm, emission spectra were recorded between 305 and 405 nm with 0.5-nm increments and at a 1-s integration time, averaging over three scans. Each titration experiment was repeated three times, and the average KD values were calculated using quadratic Equation 1, [drawing 1] where Fi is the fluorescence change; Fs is the fluorescence change at saturation of XT (the total protein concentration); and YT is the peptide concentration.

[1] = target: T2, wild-type ING3 PHD finger (Homo sapiens, UniProt Q9NXR8); assay: ITC of wild-type ING3 PHD finger with histone peptides; assay type: binding; details: for Kd / ITC KD: wild-type ING3 PHD, 5 °C, 20 mM NaH2PO4 pH 7.0, 150 mM NaCl, triplicate, non-binding in duplicate
T2 construct: The ING3 PHD finger region (residues 360–409) was amplified using PCR; GST (N, cleaved yes); made in house; host or cells: Escherichia coli Rosetta 2(DE3)pLysS
Procedure: (§1) ITC measurements were recorded at 5 °C using a MicroCal iTC200 (GE Healthcare) as described previously ([55]). The wild-type and mutant ING3PHD proteins and histone peptide samples were prepared in a 20 mM NaH2PO4, pH 7.0, and 150 mM NaCl ITC buffer by dialysis for 24–48 h. Titration experiments were set up for optimal heat of binding reactions by using 100–200 μM ING3PHD in the sample cell, and between 1 and 5 mM histone peptide in the injection syringe. Control experiments were performed under identical conditions to determine the heat of dilution of the titrant peptides into the experimental buffer. This was subtracted from the experimental data as part of data analysis. Data were analyzed using the software ORIGIN 7.0 (OriginLab Corp.).

[2] = target: T3, 15N-labeled ING3 PHD finger (Homo sapiens, UniProt Q9NXR8); assay: 1H-15N HSQC NMR chemical shift perturbation; assay type: binding; details: 0.5 mM ING3 PHD, 20 mM Tris-HCl pH 6.8, 150 mM NaCl, 10 mM DTT, 25 °C; protein:peptide up to 1:2.61
T3 construct: The ING3 PHD finger region (residues 360–409) was amplified using PCR; GST (N, cleaved yes); made in house; host or cells: Escherichia coli Rosetta 2(DE3)pLysS
Procedure: Chemical shift perturbation experiments were conducted using 0.5 mM uniformly ^15N-labeled ING3 PHD finger in buffer containing 20 mM Tris-HCl, pH 6.8, 150 mM NaCl, 10 mM DTT, and 10% D2O. Titration mixtures of the ING3PHD protein and each of the modified histone peptides were prepared at concentration ratios of 1:0, 1:0.13, 1:0.26, 1:0.52, 1:1.3, and 1:2.61 in a volume of 35 μl. These mixtures were then transferred into 1.7-mm NMR tubes (Bruker).
Two-dimensional ^15N HSQC (heteronuclear single quantum coherence) experiments for all samples were run at 25 °C on a 600 MHz Bruker AVANCE III spectrometer equipped with a z-gradient 1.7-mm TCI probe at the National Magnetic Resonance Facility at Madison (NMRFAM) using the NMRBot software ([57]). The NMR data were collected with 1024 × 128 complex data points along the ^1H and ^15N dimensions, with acquisition times of 104 and 81 ms, respectively, using eight scans per free induction decay. Normalized chemical shift changes were calculated using Equation 2, [drawing 2] where ΔδH and ΔδN are the proton and nitrogen change in chemical shift in ppm, respectively.

ING3 PHD D26H = target: T4, ING3 PHD D26H (Homo sapiens, UniProt Q9NXR8, D380H); assay: ITC of ING3 PHD mutant with H3K4me3 peptide; assay type: binding; details: 5 °C, pH 7.0, triplicate
T4 construct: The ING3 PHD finger region (residues 360–409) was amplified using PCR; GST (N, cleaved yes); made in house; host or cells: Escherichia coli Rosetta 2(DE3)pLysS
Source text: (§2) The ING3 PHD finger region (residues 360–409) was amplified using PCR and cloned into the pDEST15 vector encoding an N-terminal glutathione transferase (GST) tag using the Gateway cloning technology (Invitrogen) as described previously ([55]). ING3PHD proteins with single mutations at W31A, W47A, S15A, P43A, Y8A, and D26H were generated using the QuikChange® mutagenesis procedure (Stratagene) as described previously ([56]). The DNA sequence for wild-type and mutant proteins was verified at the University of Vermont DNA facility, and the plasmids were transformed into in Escherichia coli Rosetta^TM 2(DE3)pLysS competent cells (Novagen) for protein expression.
as §1, with “Corp.). All experiments where binding occurred were performed in triplicate, whereas non-binding experiments were performed in duplicate.” for “Corp.).”

ING3 PHD P43A = target: T5, ING3 PHD P43A (Homo sapiens, UniProt Q9NXR8, P397A); assay: ITC of ING3 PHD mutant with H3K4me3 peptide; assay type: binding
T5 construct: The ING3 PHD finger region (residues 360–409) was amplified using PCR; GST (N, cleaved yes); made in house; host or cells: Escherichia coli Rosetta 2(DE3)pLysS
Source text: as §2
as §1, with “Corp.). All experiments where binding occurred were performed in triplicate, whereas non-binding experiments were performed in duplicate.” for “Corp.).”

ING3 PHD S15A = target: T6, ING3 PHD S15A (Homo sapiens, UniProt Q9NXR8, S369A); assay: ITC of ING3 PHD mutant with H3K4me3 peptide; assay type: binding
T6 construct: The ING3 PHD finger region (residues 360–409) was amplified using PCR; GST (N, cleaved yes); made in house; host or cells: Escherichia coli Rosetta 2(DE3)pLysS
Source text: as §2
as §1, with “Corp.). All experiments where binding occurred were performed in triplicate, whereas non-binding experiments were performed in duplicate.” for “Corp.).”

ING3 PHD W47A = target: T7, ING3 PHD W47A (Homo sapiens, UniProt Q9NXR8, W401A); assay: ITC of ING3 PHD mutant with H3K4me3 peptide; assay type: binding; details: 5 °C, pH 7.0, triplicate
T7 construct: The ING3 PHD finger region (residues 360–409) was amplified using PCR; GST (N, cleaved yes); made in house; host or cells: Escherichia coli Rosetta 2(DE3)pLysS
Source text: as §2
as §1, with “Corp.). All experiments where binding occurred were performed in triplicate, whereas non-binding experiments were performed in duplicate.” for “Corp.).”

ING3 PHD Y8A = target: T8, ING3 PHD Y8A (Homo sapiens, UniProt Q9NXR8, Y362A); assay: ITC of ING3 PHD mutant with H3K4me3 peptide; assay type: binding; details: 5 °C, pH 7.0, triplicate
T8 construct: The ING3 PHD finger region (residues 360–409) was amplified using PCR; GST (N, cleaved yes); made in house; host or cells: Escherichia coli Rosetta 2(DE3)pLysS
Source text: as §2
as §1, with “Corp.). All experiments where binding occurred were performed in triplicate, whereas non-binding experiments were performed in duplicate.” for “Corp.).”

ING3 PHD W31A = target: T9, ING3 PHD W31A (Homo sapiens, UniProt Q9NXR8, W385A); assay: ITC of ING3 PHD mutant with H3K4me3 peptide; details: 5 °C, pH 7.0, non-binding in duplicate
T9 construct: The ING3 PHD finger region (residues 360–409) was amplified using PCR; GST (N, cleaved yes); made in house; host or cells: Escherichia coli Rosetta 2(DE3)pLysS
Source text: as §2
as §1, with “This was subtracted from the experimental data as part of data analysis.” left out, “Corp.). […]” for “Corp.).”

T1 sequence (Q9NXR8 360-409): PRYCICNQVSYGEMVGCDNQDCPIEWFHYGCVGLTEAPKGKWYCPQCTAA
T3 sequence (Q9NXR8 360-409): as above
T2 sequence (Q9NXR8 360-409): as above
T6 sequence (Q9NXR8 360-409 S369A): as the sequence (Q9NXR8 360-409) above, with S10A counted along it
T9 sequence (Q9NXR8 360-409 W385A): as the sequence (Q9NXR8 360-409) above, with W26A counted along it
T5 sequence (Q9NXR8 360-409 P397A): as the sequence (Q9NXR8 360-409) above, with P38A counted along it
T7 sequence (Q9NXR8 360-409 W401A): as the sequence (Q9NXR8 360-409) above, with W42A counted along it
T8 sequence (Q9NXR8 360-409 Y362A): as the sequence (Q9NXR8 360-409) above, with Y3A counted along it
T4 sequence (Q9NXR8 360-409 D380H): as the sequence (Q9NXR8 360-409) above, with D21H counted along it

C[C@H](N)C(=O)N[C@@H](CCCNC(=N)N)C(=O)N[C@H](C(=O)N[C@@H](CCCCN)C(=O)N[C@@H](CCC(N)=O)C(=O)N[C@H](C(=O)N[C@@H](C)C(=O)N[C@@H](CCCNC(=N)N)C(=O)N[C@@H](CCCCN)C(=O)N[C@@H](CO)C(=O)N[C@H](C(=O)NCC(N)=O)[C@@H](C)O)[C@@H](C)O)[C@@H](C)O [H3 unmodified]
Kd (ING3 PHD finger): 132 ± 13.5 µM | Kd [1]: 181 ± 19.2 µM | chemical shift perturbations in 1H-15N HSQC upon addition of peptide [2]: Chemical shift perturbations were induced

CNCCCC[C@H](NC(=O)[C@@H](NC(=O)[C@H](CCCNC(=N)N)NC(=O)[C@H](C)N)[C@@H](C)O)C(=O)N[C@@H](CCC(N)=O)C(=O)N[C@H](C(=O)N[C@@H](C)C(=O)N[C@@H](CCCNC(=N)N)C(=O)N[C@@H](CCCCN)C(=O)N[C@@H](CO)C(=O)N[C@H](C(=O)NCC(N)=O)[C@@H](C)O)[C@@H](C)O [H3K4me1]
Kd (ING3 PHD finger): 21.4 ± 3.51 µM | Kd [1]: 23.2 ± 0.8 µM | chemical shift perturbations in 1H-15N HSQC upon addition of peptide [2]: Chemical shift perturbations were induced

C[C@H](N)C(=O)N[C@@H](CCCNC(=N)N)C(=O)N[C@H](C(=O)N[C@@H](CCCCN(C)C)C(=O)N[C@@H](CCC(N)=O)C(=O)N[C@H](C(=O)N[C@@H](C)C(=O)N[C@@H](CCCNC(=N)N)C(=O)N[C@@H](CCCCN)C(=O)N[C@@H](CO)C(=O)N[C@H](C(=O)NCC(N)=O)[C@@H](C)O)[C@@H](C)O)[C@@H](C)O [H3K4me2]
Kd (ING3 PHD finger): 4.05 ± 0.53 µM | Kd [1]: 2.99 ± 0.33 µM | chemical shift perturbations in 1H-15N HSQC upon addition of peptide [2]: Chemical shift perturbations were induced

C[C@H](N)C(=O)N[C@@H](CCCNC(=N)N)C(=O)N[C@H](C(=O)N[C@@H](CCCC[N+](C)(C)C)C(=O)N[C@@H](CCC(N)=O)C(=O)N[C@H](C(=O)N[C@@H](C)C(=O)N[C@@H](CCCNC(=N)N)C(=O)N[C@@H](CCCCN)C(=O)N[C@@H](CO)C(=O)N[C@H](C(=O)NCC(N)=O)[C@@H](C)O)[C@@H](C)O)[C@@H](C)O [H3K4me3]
Kd (ING3 PHD finger): 0.63 ± 0.11 µM | association stronger than with the unmodified histone H3 ([1]; abstract, method not specified (Trp fluorescence and ITC)): about 200 fold | Kd [1]: 0.93 ± 0.04 µM | Kd (ING3 PHD D26H): 1.93 ± 0.26 µM | Kd (ING3 PHD P43A; 5 °C, pH 7.0, triplicate): 2.45 ± 0.27 µM | drop in binding affinity versus WT (ING3 PHD P43A; ITC): 2–3 fold | Kd (ING3 PHD S15A; 5 °C, pH 7.0, triplicate): 1.5 ± 0.01 µM | drop in binding affinity versus WT (ING3 PHD S15A; ITC): 2–3 fold and 2 fold | Kd (ING3 PHD W47A): 48.31 ± 0.23 µM | Kd (ING3 PHD Y8A): 46 ± 2.99 µM | ITC KD (ING3 PHD W31A): no recognition of this ligand; also recorded: No binding | chemical shift perturbations in 1H-15N HSQC upon addition of peptide [2]: Chemical shift perturbations were induced

GKGGKGLGKGGAKR [H4 unmodified, unmodified histone H4 tail peptide residues 4–17, amidated C terminus]
ITC KD [1]: No binding was observed | ITC KD ([1]; listed as H4 unmodified(4–17)): No binding | chemical shift perturbations in 1H-15N HSQC upon addition of peptide [2]: No significant resonance shifts
